Measured values from patent US12391679B2, “Benzamide-substituted bicyclic imidazo- and pyrazolo-fused -pyridine, -pyrimide, and -pyridazine compounds for treatment of inflammatory diseases” (ONCO3R Therapeutics BV, priority 2019, dated 2025).

Assays:
B10.RIII mice, IL-23 EEV = assay: Murine model of psoriatic arthritis induced by overexpression of IL-23; assay type: in vivo; conditions: mouse, IL-23 overexpression
Source text: Mouse IL-23 enhanced episomal expression vector (EEV) was obtained from System Biosciences (Cat #EEV651A-1). Mouse IL-23 Quantikine ELISA Kits were obtained from R&D Systems (Cat #M2300). ProSense® 680 and OsteoSense® 750EX were obtained from PerkinElmer (Cat #NEV10003 and NEV10053EX). RNAlater® was obtained from Ambion (Cat #AM7021). Imalgene® 1000 (Merial) and Rompun® 2% (Bayer) were obtained from Centravet (Cat #IMA004-6827812 and ROM001-6835444).
B10.RIII mice (male, 8-week old) were obtained from Charles River (Écully, France). Mice were kept on a 12 h light/dark cycle. Temperature was maintained at 22±2° C., food and water were provided ad libitum.
The design of the study is adapted from Sherlock J P. et al. (Sherlock et al. 2012).
On the first day (D1), the mice underwent a hydrodynamic injection of Ringer or IL-23 EEV in Ringer into the tail vein.
As of D5, twice a week, the mice were scored for clinical symptoms until the end of the experiment.
On D5, blood was collected by puncture in the submandibular vein to assess the serum IL-23 concentration.
On D9, mice from all groups received ProSense® 680 probe (0.8 nmol/10 g, i.p.). On D10, the mice were anesthetized. Granulocyte infiltration was then measured using in vivo molecular imaging (Bruker In-Vivo Xtreme imaging system).
On D11, randomization was performed according to ProSense® 680 molecular imaging and scoring.
As of D12, mice were dosed with test compound or with vehicle.
On D36, mice from all groups were sacrificed 2 h after last administration of compound.
Twice weekly, clinical signs of inflammation were scored: 0 for normal paw; 1 if swelling of one digit; 2 if swelling of two or more digits; 3 if swelling of the entire paw. The scores of all limbs were summed up to produce a global score.
There were 10 mice per group. The results are expressed as mean±SEM and statistical analysis is performed using one-way ANOVA followed by Dunnett's post-hoc test versus diseased vehicle group for scoring and imaging analysis, versus sham vehicle group for body weight.

SIK3 = molecular target: T1, SIK3 (Homo sapiens, UniProt Q9Y2K2); assay: 33P radioactive kinase assay, SIK3; assay type: biochemical; conditions: 33P radioactive assay; AMARA 7 μM; 15 μM ATP; 80 min; average IC50
T1 construct: purchased SignalChem S12-11G-100
In short: (§1)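 SIK1, SIK2 or SIK3 phosphorylation of AMARA peptide with [33P]-γ-ATP plus unlabeled ATP. 10-point 1/5 dilution series, 1% DMSO final; reactions stopped with phosphoric acid, filter-harvested and scintillation-counted. Percentage inhibition and average IC50 derived from dose-response curves.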

SIK1 = molecular target: T2, SIK1 (Homo sapiens, UniProt P57059); assay: 33P radioactive kinase assay, SIK1; assay type: biochemical
T2 construct: purchased Carna Biosciences 02-131
In short: as §1

[1] = tested on: C57BL/6N mice, bleomycin induced pulmonary fibrosis; assay: Therapeutic bleomycin induced pulmonary fibrosis 21-day mice model; assay type: in vivo; conditions: mouse, bleomycin 21-day; 10 mg/kg p.o. b.i.d. in PEG200/MC 0.5% 20/80 (v/v); meta-analysis of two pooled identical study runs
Protocol: The aim of the study is to test the efficacy of a test compound at three different doses in a 21-day model of bleomycin induced pulmonary fibrosis in mice.
This study is carried out on C57BL/6N male mice, supplied by Charles River (Calco, Italy), which are acclimatized for at least 5 days in an environment maintained at 22° C., at 55% relative humidity, with 15-20 air changes per hour under light cycles of 12 h. Mice pelleted food and water are provided ad libitum.
The solvent for the test solutions is prepared by adding 0.5 g of hydroxyethylcellulose (Natrosol™) into 500 mL aqua distillate (0.1%) under continuous stirring without heating for 5 h on a magnetic stirrer.
To prepare a solution for intranasal (i.n.) challenge, 0.8 mg/mL stock solutions of bleomycin (Cat #BML-AP302-0010, Enzo Life Sciences, Inc., USA) are thawed and diluted in 330 μL of saline. Prior to i.n. administration, mice are anesthetized i.p.
Finally, test compound solutions are prepared by dissolving the suitable amount of said test compound in PEG 400 or PEG 200 (20% of the final volume) then MC 0.5% (80% of the final volume) to reach final concentrations of 1 mg/mL, 0.3 mg/mL and 0.1 mg/mL, thus yielding compound for a doses of 10 mg/kg, 3 mg/kg and 1 mg/kg. […]
Pulmonary histological changes are assessed using Matsuse modification of Ashcroft score (Ashcroft et al. 1988; Matsuse et al. 1999). […]

T1 sequence (Q9Y2K2 59-365 limits assumed): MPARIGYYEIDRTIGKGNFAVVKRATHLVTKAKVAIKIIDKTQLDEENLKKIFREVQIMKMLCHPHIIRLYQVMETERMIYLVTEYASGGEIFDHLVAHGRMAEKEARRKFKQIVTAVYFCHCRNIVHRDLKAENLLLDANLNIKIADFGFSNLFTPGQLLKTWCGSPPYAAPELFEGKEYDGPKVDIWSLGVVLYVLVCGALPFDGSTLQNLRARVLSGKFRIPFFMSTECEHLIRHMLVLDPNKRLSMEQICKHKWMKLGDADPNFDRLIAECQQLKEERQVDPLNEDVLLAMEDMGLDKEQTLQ
T2 sequence (P57059 whole entry): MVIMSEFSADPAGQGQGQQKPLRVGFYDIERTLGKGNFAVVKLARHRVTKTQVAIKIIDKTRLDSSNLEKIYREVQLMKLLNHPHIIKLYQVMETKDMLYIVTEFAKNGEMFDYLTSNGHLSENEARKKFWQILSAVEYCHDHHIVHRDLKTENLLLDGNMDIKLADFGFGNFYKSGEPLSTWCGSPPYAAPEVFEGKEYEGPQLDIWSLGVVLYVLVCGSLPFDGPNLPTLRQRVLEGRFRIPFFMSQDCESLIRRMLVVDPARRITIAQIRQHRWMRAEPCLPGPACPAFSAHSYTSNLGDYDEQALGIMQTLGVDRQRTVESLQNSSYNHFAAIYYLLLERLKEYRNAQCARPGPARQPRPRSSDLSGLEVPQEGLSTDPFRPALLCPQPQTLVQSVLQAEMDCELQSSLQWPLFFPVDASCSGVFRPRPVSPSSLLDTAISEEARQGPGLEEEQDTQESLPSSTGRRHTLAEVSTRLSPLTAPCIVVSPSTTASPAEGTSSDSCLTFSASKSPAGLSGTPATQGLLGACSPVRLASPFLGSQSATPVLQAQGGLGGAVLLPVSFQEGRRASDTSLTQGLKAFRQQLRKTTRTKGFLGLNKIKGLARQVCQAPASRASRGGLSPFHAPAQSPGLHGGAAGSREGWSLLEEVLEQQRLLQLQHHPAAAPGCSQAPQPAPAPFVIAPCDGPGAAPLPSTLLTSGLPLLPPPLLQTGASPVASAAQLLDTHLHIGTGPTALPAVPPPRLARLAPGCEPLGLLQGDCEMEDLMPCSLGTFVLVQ

## COc1cc(-c2cnn3cc(C4(N)CCC4)ccc23)cc(OC(F)F)c1C(=O)N[C@@H]1C[C@@H]1F [Cpd 261, 4-[6-(1-aminocyclobutyl)pyrazolo[1,5-a]pyridin-3-yl]-2-(difluoromethoxy)-N-[(1R,2S)-2-fluorocyclopropyl]-6-methoxy-benzamide]
B10.RIII mice, IL-23 EEV; 50 mg/kg p.o. b.i.d.
  clinical score compared to diseased vehicle group: statistically significant decrease

## COc1cc(-c2cnc3cc(C(C)(C)C#N)ccn23)cc(OC)c1C(=O)NC1CC1 [Cpd 28, 4-[7-(1-cyano-1-methyl-ethyl)imidazo[1,2-a]pyridin-3-yl]-N-cyclopropyl-2,6-dimethoxy-benzamide]
SIK3
  IC50: 10 to 100 nM
SIK1
  IC50: > 500 nM

## COc1cc(-c2cnc3cc(C(C)(C)C#N)ccn23)cc(OC(F)F)c1C(=O)NC1CC1 [Cpd 19, 4-[7-(1-cyano-1-methyl-ethyl)imidazo[1,2-a]pyridin-3-yl]-N-cyclopropyl-2-(difluoromethoxy)-6-methoxy-benzamide]
B10.RIII mice, IL-23 EEV; 10 mg/kg p.o. b.i.d.
  clinical score compared to diseased vehicle group: statistically significant decrease
SIK3
  IC50: 0.01 to 10 nM
SIK1
  IC50: > 500 nM

## COc1cc(-c2cnc3cc(C4(C#N)CC4)ccn23)cc(OC(F)F)c1C(=O)NC1CC1 [Cpd 33, 4-[7-(1-cyanocyclopropyl)imidazo[1,2-a]pyridin-3-yl]-N-cyclopropyl-2-(difluoromethoxy)-6-methoxy-benzamide]
SIK3
  IC50: 0.01 to 10 nM
SIK1
  IC50: 100 to 500 nM

## COc1cc(-c2cnn3cc(C(C)(C)C#N)ccc23)cc(OC(F)F)c1C(=O)N[C@@H]1C[C@@H]1F [Cpd 219, 4-[6-(1-cyano-1-methyl-ethyl)pyrazolo[1,5-a]pyridin-3-yl]-2-(difluoromethoxy)-N-[(1R,2S)-2-fluorocyclopropyl]-6-methoxy-benzamide]
B10.RIII mice, IL-23 EEV; 3 mg/kg p.o. b.i.d.
  clinical score compared to diseased vehicle group: statistically significant decrease
[1]
  Ashcroft score compared to the vehicle group: statistically significant decrease

## CCC(C)(C#N)c1ccn2c(-c3cc(OC)c(C(=O)NC4CC4)c(OC(F)F)c3)cnc2c1 (stereo not shown) [Cpd 27, 4-[7-(1-cyano-1-methyl-propyl)imidazo[1,2-a]pyridin-3-yl]-N-cyclopropyl-2-(difluoromethoxy)-6-methoxy-benzamide]
SIK3
  IC50: 10 to 100 nM
SIK1
  IC50: > 500 nM

## COc1cc(-c2cnc3cc(C4COC4)ccn23)cc(OC(F)F)c1C(=O)NC1CC1 [Cpd 174, N-cyclopropyl-2-(difluoromethoxy)-6-methoxy-4-[7-(oxetan-3-yl)imidazo[1,2-a]pyridin-3-yl]benzamide]
B10.RIII mice, IL-23 EEV; 30 mg/kg p.o. b.i.d.
  clinical score compared to diseased vehicle group: statistically significant decrease
